Test results as given in publication PMC13128454, “Mutant p53 protein accumulation is selectively targetable by proximity-inducing drugs” (Nature Chemical Biology, 2025).
Values joined by “and” are separate entries in the source; they are usually repeats but may differ in a detail not shown here. Equal values may be shown once.

Key:
Format in all cases: cell-based
[1] = tested on: Halo–p53-Y220C ΔTAD–mCherry 293T cells; experiment: caspase 3/7 glo; details: for mean_norm (caspase 3/7 glo): Cell_Line Y220C, normalized to Concentration 0; for raw caspase 3/7 glo signal, single replicate: Y220C
Description: (§1) Cells were plated in 384-well plates (typically 1,500 cells per well) with varying concentrations of compounds with a total volume of 50 μl per well. After 1 day, caspase 3/7 glo reagent (Promega) was added following the manufacturer’s protocol and read out using an EnVision 2105 multimode plate reader.

parental 293T cells [2] = experiment: caspase 3/7 glo; details: for mean_norm (caspase 3/7 glo): Cell_Line WT, normalized to Concentration 0; for raw caspase 3/7 glo signal, single replicate: WT
Description: as §1

[3] = tested on: 293T cells stably expressing Halo–p53-Y220C ΔTAD–mCherry versus parental 293T cells; experiment: crystal violet staining; details: 5 days
Description: The 293T cells were plated in six-well or 12-well plates at low density (~10% confluence) and treated with compound for the indicated duration. Cells were rinsed once with PBS and then stained with crystal violet (0.5% m/v) in 20% methanol–water for 10 min. Cells were washed with water five times and air-dried overnight.

[4] = tested on: Halo–p53-Y220C ΔTAD–mCherry 293T cells; experiment: cell-cycle analysis (DNA content, DAPI flow cytometry); parameters: 4N / 8N / Right_of_Gate1 (replicates) / Right_of_Gate2 (replicates) / 2N: unit not given here; details: 1 day; for 2N / 4N / 8N / Right_of_Gate1 (replicates) / Right_of_Gate2 (replicates): Y220C
Description: (§2) Cells were split into a 10-cm dish at low confluency (20%) and grown overnight. Cells were synchronized using overnight treatment with palbociclib (150 nM), washed and split into a six-well plate for treatment with compound for 24 h. Cells were harvested by trypsinization, washed twice with cold 1× PBS, fixed by dropwise addition of ice-cold 70% ethanol while vortexing and incubated overnight (4 °C). Fixed samples were centrifuged at 1,000g for 5 min and 70% ethanol was removed. Cells were washed twice with 1× PBS + 1% BSA before DNA labeling with 1 µg ml^−1 DAPI for 10 min at room temperature, before being analyzed for DNA content by flow cytometry (Beckman CytoFLEX LX).

parental 293T cells [5] = experiment: as above; details: 1 day; for 2N / 4N / Right_of_Gate1 (replicates) / Right_of_Gate2 (replicates): WT
Description: as §2

[6] = tested on: Halo–p53-Y220C ΔTAD–mCherry 293T cells; experiment: annexin–PI staining; details: for P3_avg (P3 = early apoptotic) / P5_avg (P5 = late apoptotic): Cell_Line Y220C, proportion of cells; for avgprop_P3 / avgprop_P4 / avgprop_P5 / avgprop_P2 / P2_viable / P3_AnnexinPos_PIneg / P4_PIpos_AnnexinNeg / P5_PIpos_Annexinpos / prop_P3 / prop_P4 / prop_P5 / prop_P2: Y220C; for avgprop_P3: average proportion AnnexinPos PIneg; for avgprop_P4: average proportion PIpos AnnexinNeg; for avgprop_P5: average proportion PIpos Annexinpos; for avgprop_P2: average proportion viable; for P2_viable / P3_AnnexinPos_PIneg / P4_PIpos_AnnexinNeg / P5_PIpos_Annexinpos: event count; for P2_viable / P3_AnnexinPos_PIneg / P4_PIpos_AnnexinNeg / P5_PIpos_Annexinpos / prop_P3 / prop_P4 / prop_P5 / prop_P2: single replicate; for prop_P3: proportion AnnexinPos PIneg; for prop_P4: proportion PIpos AnnexinNeg; for prop_P5: proportion PIpos Annexinpos; for prop_P2: proportion viable
Description: Cells were plated in six-well plates and treated with varying concentrations of compounds for 1 day. Cells were stained with annexin V–AF488 and PI following the manufacturer’s instructions (Thermo Fisher, V13241) and analyzed by flow cytometry (Beckman CytoFLEX LX), using untreated cells to establish gates.

[7] = Conc 0.38 (unit not given; p53-01 in μM, BI2536 in nM)
[8] = Conc 0.75 (unit not given; p53-01 in μM, BI2536 in nM)
[9] = Conc 1.50 (unit not given; p53-01 in μM, BI2536 in nM)

## CC[C@@H]1C(=O)N(C)c2cnc(Nc3ccc(C(=O)NCCOCCOCCOCCOCCC(=O)N4CCC(Nc5cccc6c5cc(C#CCNc5ccc(S(C)(=O)=O)cc5OC)n6CC(F)(F)F)CC4)cc3OC)nc2N1C1CCCC1 [p53-01, PMV6-PEG4-BI2536]
[1]; Concentration 19.5312
  mean_norm (caspase 3/7 glo): 1.044
  raw caspase 3/7 glo signal, single replicate: 122690 and 136337 and 118028 and 144163
[1]; Concentration 39.0625
  mean_norm (caspase 3/7 glo): 0.9705
  raw caspase 3/7 glo signal, single replicate: 117294 and 127747 and 106194 and 133419
[1]; Concentration 78.125
  mean_norm (caspase 3/7 glo): 0.9927
  raw caspase 3/7 glo signal, single replicate: 123437 and 120512 and 118467 and 133301
[1]; Concentration 156.25
  mean_norm (caspase 3/7 glo): 0.9639
  raw caspase 3/7 glo signal, single replicate: 105036 and 125984 and 107588 and 142722
[1]; Concentration 312.5
  mean_norm (caspase 3/7 glo): 0.9272
  raw caspase 3/7 glo signal, single replicate: 120420 and 114761 and 112118 and 115705
[1]; Concentration 625
  mean_norm (caspase 3/7 glo): 0.8899
  raw caspase 3/7 glo signal, single replicate: 92711 and 123269 and 91753 and 136660
[1]; Concentration 1250
  mean_norm (caspase 3/7 glo): 1.234
  raw caspase 3/7 glo signal, single replicate: 148294 and 147349 and 143892 and 176603
[1]; Concentration 2500
  mean_norm (caspase 3/7 glo): 2.011
  raw caspase 3/7 glo signal, single replicate: 271302 and 236256 and 229038 and 267460
[1]; Concentration 5000
  mean_norm (caspase 3/7 glo): 2.316
  raw caspase 3/7 glo signal, single replicate: 327582 and 262469 and 277595 and 289089
[1]; Concentration 10000
  mean_norm (caspase 3/7 glo): 2.222
  raw caspase 3/7 glo signal, single replicate: 286008 and 259961 and 264959 and 298921
[1]; versus parental 293T, caspase 3/7 glo and annexin–PI, 1 day
  induction of apoptosis: differentially induced apoptosis
Parental 293T cells [2]; Concentration 19.5312
  mean_norm (caspase 3/7 glo): 1.032
  raw caspase 3/7 glo signal, single replicate: 133494 and 117337 and 138819 and 114789
Parental 293T cells [2]; Concentration 39.0625
  mean_norm (caspase 3/7 glo): 0.9788
  raw caspase 3/7 glo signal, single replicate: 123804 and 109630 and 139391 and 105438
Parental 293T cells [2]; Concentration 78.125
  mean_norm (caspase 3/7 glo): 1.009
  raw caspase 3/7 glo signal, single replicate: 123731 and 127401 and 120215 and 121439
Parental 293T cells [2]; Concentration 156.25
  mean_norm (caspase 3/7 glo): 0.9403
  raw caspase 3/7 glo signal, single replicate: 127240 and 99863 and 130913 and 101408
Parental 293T cells [2]; Concentration 312.5
  mean_norm (caspase 3/7 glo): 0.9336
  raw caspase 3/7 glo signal, single replicate: 120672 and 107314 and 116046 and 112110
Parental 293T cells [2]; Concentration 625
  mean_norm (caspase 3/7 glo): 0.8748
  raw caspase 3/7 glo signal, single replicate: 120568 and 89735 and 125147 and 91991
Parental 293T cells [2]; Concentration 1250
  mean_norm (caspase 3/7 glo): 1.007
  raw caspase 3/7 glo signal, single replicate: 122108 and 116864 and 133954 and 118859
Parental 293T cells [2]; Concentration 2500
  mean_norm (caspase 3/7 glo): 1.185
  raw caspase 3/7 glo signal, single replicate: 139477 and 137713 and 153198 and 148518
Parental 293T cells [2]; Concentration 5000
  mean_norm (caspase 3/7 glo): 1.4986
  raw caspase 3/7 glo signal, single replicate: 207130 and 170945 and 175970 and 178176
Parental 293T cells [2]; Concentration 10000
  mean_norm (caspase 3/7 glo): 1.763
  raw caspase 3/7 glo signal, single replicate: 233886 and 204323 and 214988 and 207998
[3]
  crystal violet staining: differential antiproliferative activity
[4]; 0.75 μM, synchronized cells
  DNA content: accumulation of Halo–p53-Y220C ΔTAD–mCherry 293T cells with 4 N DNA content
[4]; 1.5 μM
  cells with genome doubling (8 N DNA content): ~ 60%
[4]; [7]
  2N: 58.97
  4N: 39.03
  8N: 2.00
  Right_of_Gate1 (replicates): 41.03 and 37.34 and 37.12
  Right_of_Gate2 (replicates): 2.00 and 2.08 and 2.06
[4]; [8]
  2N: 39.09
  4N: 57.44
  8N: 3.47
  Right_of_Gate1 (replicates): 60.91 and 56.52 and 59.94
  Right_of_Gate2 (replicates): 3.47 and 3.35 and 3.58
[4]; [9]
  2N: 1.94
  4N: 38.53
  8N: 59.53
  Right_of_Gate1 (replicates): 98.06 (2×) and 98.33
  Right_of_Gate2 (replicates): 59.53 and 59.10 and 58.35
Parental 293T cells [5]; 0.75 μM, synchronized cells
  DNA content: unaffected
Parental 293T cells [5]; [7]
  2N: 59.15
  4N: 37.20
  Right_of_Gate1 (replicates): 40.85 and 40.98 and 41.52
  Right_of_Gate2 (replicates): 3.65 and 3.77 and 3.58
Parental 293T cells [5]; [8]
  2N: 59.00
  4N: 37.55
  Right_of_Gate1 (replicates): 41.00 and 43.44 and 43.05
  Right_of_Gate2 (replicates): 3.45 and 3.41 and 3.53
Parental 293T cells [5]; [9]
  2N: 35.77
  4N: 52.80
  Right_of_Gate1 (replicates): 64.23 and 64.42 and 63.80
  Right_of_Gate2 (replicates): 11.43 and 12.05 and 12.32
[6]; Concentration 0.75
  P3_avg (P3 = early apoptotic): 0.07971
  P5_avg (P5 = late apoptotic): 0.02225
  avgprop_P3: 0.07971
  avgprop_P4: 0.05038
  avgprop_P5: 0.02225
  avgprop_P2: 0.8477
  P2_viable: 1654 and 1707 and 1670
  P3_AnnexinPos_PIneg: 165 and 158 and 150
  P4_PIpos_AnnexinNeg: 95 and 98 and 106
  P5_PIpos_Annexinpos: 45 and 43 and 44
  prop_P3: 0.08423 and 0.07876 and 0.07614
  prop_P4: 0.04849 and 0.04885 and 0.05381
  prop_P5: 0.02297 and 0.02144 and 0.02234
  prop_P2: 0.8443 and 0.8509 and 0.8477
[6]; Concentration 1.5
  P3_avg (P3 = early apoptotic): 0.2575
  P5_avg (P5 = late apoptotic): 0.07698
  avgprop_P3: 0.2575
  avgprop_P4: 0.06957
  avgprop_P5: 0.07698
  avgprop_P2: 0.5959
  P2_viable: 912 and 887 and 871
  P3_AnnexinPos_PIneg: 381 and 378 and 395
  P4_PIpos_AnnexinNeg: 104 and 92 and 116
  P5_PIpos_Annexinpos: 109 and 111 and 125
  prop_P3: 0.253 and 0.2575 and 0.2621
  prop_P4: 0.06906 and 0.06267 and 0.07697
  prop_P5: 0.07238 and 0.07561 and 0.08295
  prop_P2: 0.6056 and 0.6042 and 0.578
